Measured values: US20090258863A1, “Method for treatment of amyotrophic lateral sclerosis using talampanel” (priority 2008, published 2009)

Experiments:
mouse model of ALS = conditions: Van Damme et al. 2003; cited from earlier work
motor neurons [1] = conditions: in vitro; cited from earlier work
motor neurons [2] = conditions: organotypic spinal cord slice model; cited from earlier work
ALS patients = conditions: cited from earlier work
GABA receptor complex = conditions: Tarnawa et al. 1989; cited from earlier work
subjects with ALS [3] = assay: Example 2: another clinical trial according to the procedure of Example 1; assay type: in vivo, human
Protocol: (§1) A subject is assessed for study eligibility at a screening visit (one to 4 weeks prior to baseline). Subjects who are found eligible to participate in the study are randomized in a 2:1:2 ratio into one of the following three treatment groups based on a randomization scheme with blocks stratified by center: • 1. 50 mg (25 mg capsule×2) talampanel t.i.d. (150 mg daily) • 2. 25 mg (12.5 mg capsule×2) talampanel t.i.d. (75 mg daily) • 3. Placebo
(§2) After undergoing randomization subjects receive their first dose of study treatment on site. There are two possible escalation periods to reach maximal dose of 6 capsules per day, as follows: • Screening Period Up to 4 weeks but not less than 1 week. The period between screening visit and baseline visit. During this time period all relevant data for the assessment of subjects eligibility should be collected and reviewed i.e. lab results, ECG, medical history etc. • First Escalation Period: A period of 4 to 6 weeks, following screening period. This period starts at baseline visit, following randomization; • Second Escalation Period: A period of 2 weeks, this period starts at week 10 visit and ends at week 12 visit. • Maintenance Period: A time period of 46 to 48 weeks, following the first escalation period, starting after reaching maximal achieved dose in the first escalation period. During this period oral administration of talampanel 25 mg t.i.d., 50 mg t.i.d. (or maximal achieved dose) or matching oral placebo is maintained.
(§3) The first escalation period is a period of 4-6 weeks, following randomization. The dose escalation plan for the 25 mg and 50 mg t.i.d. dose levels, respectively, is as follows: • First week: from baseline visit to week 1 (telephone visit): Three capsules (37.5 mg or 75 mg daily) one each a.m., mid-day and p.m. dosing. • Second week: from week 1 (telephone visit) to week 2 (telephone visit): Four capsules (50 mg or 100 mg daily) one each a.m. & mid-day, two at p.m. dosing. • Third week: from week 2 (telephone visit) to week 3 (telephone visit): Five capsules (62.5 mg or 125 mg daily) two at a.m. one in mid-day and two at p.m. dosing. • Fourth week: from week 3 (telephone visit) to week 4 on site visit: Six capsules (75 mg or 150 mg daily) two at each a.m., mid-day and p.m. dosing.
(§4) At in-clinic visits the following are assessed: • Revised ALS Functional Rating Scale (ALSFRS-R) (screening, baseline, weeks 4-6, 12, 26, 40, 52/ET and unscheduled) • Slow VC (screening, baseline, weeks 4-6, 12, 26, 40, 52/ET and unscheduled) • Manual Muscle Testing (MMT) (baseline, weeks 12, 26, 40, 52/ET and unscheduled) • ALS-Specific Quality of life (ALSSQoL) scale (baseline, weeks 26, 52/ET) [US and Canada Only] • EuroQol-5 Dimensions (EQ-5D) health outcomes scale (baseline, weeks 4-6, 12, 26, 40 and 52/ET) • Health Care Resource Utilization Questionnaire for ALS (baseline, weeks 4-6, 12, 26, 40, 52/ET) • Caregiver burden questionnaire, Zarit Burden Interview (ZBI) [caregiver] (Baseline, weeks 12, 26, 40, 52/ET) • Laboratory (screening, baseline, weeks 4-6, 12, 26, 40, 52/ET and unscheduled) • ECG (screening, baseline (3 times), weeks 4-6, 12, 26, 40, 52/ET and unscheduled) • Physical examination (screening, baseline, weeks 4-6, 12, 26, 40 and 52/ET and unscheduled) • Vital signs and weights (screening, baseline, weeks 4-6, 12, 26, 40 and 52/ET and unscheduled) • Check of concomitant medications, AEs and compliance • Pharmacokinetics (PK): Safety Pharmacokinetics (PK) blood samples are taken after at least 3 days on the maximal achieved dose at end of first escalation period at week 4-6 (pre-dose, anytime in the range of 0.5-2 hours post-dose and anytime in the range of 2-4 hours post dose with at least 1 hour difference between the 2 post dose samples) and at week 12 (pre-dose, anytime in the range of 0.5-2 hours post-dose and anytime in the range of 2-4 hours post dose with at least 1 hour difference between the 2 post dose samples). […]

subjects with ALS [4] = assay: Example 3: another clinical trial according to the procedure of Example 1; assay type: in vivo, human
Protocol: as §1, §2, §3, §4

subjects with ALS [5] = assay: Example 4: another clinical trial according to the procedure of Example 1; assay type: in vivo, human
Protocol: as §1, §2, §3, §4

ALS = assay: Pilot study of talampanel in ALS, 50 mg t.i.d. vs placebo; assay type: in vivo, human; conditions: placebo −10.2, p=0.08, positive trend
Protocol: A pilot study of talampanel in ALS compared 50 mg t.i.d of talampanel to placebo. The study found a positive trend in the ALSFRS scores of talampanel treated relative to placebo (average score −7.1 vs. −10.2, p=0.08).

[6] = test system: N-acetyltransferse NAT2 isozymes; assay: Previous clinical trial: N-acetylation of talampanel by NAT2; assay type: in vivo, human
Excerpt: N-acetylation was identified as one metabolic pathway of talampanel, catalyzed by N-acetyltransferse NAT2 isozymes. A genetic polymorphism in the NAT2 gene affects the acetylation rate. […] The three common slow acetylator alleles identified are NAT2*5A, NAT2*6A and NAT2*7A. The NAT2*5 alleles have the greatest reductions in metabolic activation while NAT2*6 alleles have more moderate reductions and NAT2*7 alleles have the smallest, but yet significant, reductions. The frequency of NAT2 slow acetylators (about 2-10% in Asian, 60-70% in Caucasians, 30-40% in Africans) and NAT2 fast acetylators (about 40-60% in Asian, 3-15% in Caucasian, 10-25% in Africans) varies markedly with ethnicity.

[7] = human, in vivo
Protocol: (§5) In this study, the daily dose is increased by 12.5 mg or 25 mg daily each week to reach 75 mg or 150 mg daily (25 mg t.i.d. or 50 mg t.i.d.) respectively, at the 4th to 6th week or at the 11th to 12th week if needed.

[8] = test system: AMPA subtype of glutamate excitatory amino acid receptors; conditions: AMPA antagonist; cited from earlier work
[9] = Prior clinical trials with talampanel: safety and tolerability; conditions: previous clinical trials
Protocol: as §5

[10] = 50 mg t.i.d., statistically significant
[11] = talampanel group, dose not stated, vs placebo

NS(=O)(=O)c1cccc2c1c([N+](=O)[O-])cc1nc(O)c(O)nc12 [NBQX]
prolonged survival in ALS mice (mouse model of ALS): 14 days
kainate induced calcium entry into motor neurons (motor neurons [1]): blocked

CC1(C)O[C@@H]2[C@@H](CO[C@@]3(COS(N)(=O)=O)OC(C)(C)O[C@@H]23)O1 [topiramate]
protection of motor neurons (motor neurons [2]): protected motor neurons
benefit in clinical trial in ALS patients (ALS patients; Cudkowicz et al. 2003): no benefit
adverse events in patients (ALS patients; including dramatic weight loss): significant adverse events

CC1=NN=C(c2ccc(N)cc2)c2cc3c(cc2C1)OCO3 [GYKI-52466]
1,4-benzodiazepine (diazepam-like) activity at the GABA receptor complex (GABA receptor complex): no classical 1,4-benzodiazepine (that is, “diazepam-like”) activity

CC(=O)N1N=C(c2ccc(N)cc2)c2cc3c(cc2C[C@H]1C)OCO3 [talampanel]
decrease in the slopes of ALSFRS-R as compared to placebo (subjects with ALS [3]; 25 mg t.i.d.): 20%
risk of either death, tracheostomy, or permanent assisted ventilation (subjects with ALS [3]; 25 mg t.i.d.): reduction
decrease in the change in ALSFRS-R from baseline to LOV in comparison to placebo (subjects with ALS [3]; 50 mg t.i.d.): 20%
risk of either death, tracheostomy, or permanent assisted ventilation (subjects with ALS [3]; 50 mg t.i.d.): decrease
adjusted mean change from baseline in MMT across visits (subjects with ALS [3]; 50 mg t.i.d. vs placebo): decrease
adjusted mean change from baseline in Slow VC across visits (subjects with ALS [3]; 50 mg t.i.d. vs placebo): decrease
slopes of MMT (subjects with ALS [3]; 50 mg t.i.d. vs placebo): decrease
slopes of Slow VC (subjects with ALS [3]; 50 mg t.i.d. vs placebo): decrease
decrease in the slopes of ALSFRS-R as compared to placebo (subjects with ALS [3]; [10]): 20%
change in MMT from baseline to LOV (subjects with ALS [3]; [11]): decrease
decrease in the slopes of ALSFRS-R as compared to placebo (subjects with ALS [4]; 25 mg t.i.d.): 25%
risk of either death, tracheostomy, or permanent assisted ventilation (subjects with ALS [4]; 25 mg t.i.d.): reduction
adjusted mean change from baseline in MMT across visits (subjects with ALS [4]; 50 mg t.i.d vs placebo): decrease
decrease in the change in ALSFRS-R from baseline to LOV in comparison to placebo (subjects with ALS [4]; 50 mg t.i.d.): 25%
risk of either death, tracheostomy, or permanent assisted ventilation (subjects with ALS [4]; 50 mg t.i.d.): decrease
adjusted mean change from baseline in Slow VC across visits (subjects with ALS [4]; 50 mg t.i.d. vs placebo): decrease
slopes of MMT (subjects with ALS [4]; 50 mg t.i.d. vs placebo): decrease
slopes of Slow VC (subjects with ALS [4]; 50 mg t.i.d. vs placebo): decrease
decrease in the slopes of ALSFRS-R as compared to placebo (subjects with ALS [4]; [10]): 25%
change in MMT from baseline to LOV (subjects with ALS [4]; [11]): decrease
decrease in the slopes of ALSFRS-R as compared to placebo (subjects with ALS [5]; 25 mg t.i.d.): 30%
risk of either death, tracheostomy, or permanent assisted ventilation (subjects with ALS [5]; 25 mg t.i.d.): reduction
decrease in the change in ALSFRS-R from baseline to LOV in comparison to placebo (subjects with ALS [5]; 50 mg t.i.d.): 30%
risk of either death, tracheostomy, or permanent assisted ventilation (subjects with ALS [5]; 50 mg t.i.d.): decrease
adjusted mean change from baseline in MMT across visits (subjects with ALS [5]; 50 mg t.i.d. vs placebo): decrease
adjusted mean change from baseline in Slow VC across visits (subjects with ALS [5]; 50 mg t.i.d. vs placebo): decrease
slopes of MMT (subjects with ALS [5]; 50 mg t.i.d. vs placebo): decrease
slopes of Slow VC (subjects with ALS [5]; 50 mg t.i.d. vs placebo): decrease
decrease in the slopes of ALSFRS-R as compared to placebo (subjects with ALS [5]; [10]): 30%
change in MMT from baseline to LOV (subjects with ALS [5]; [11]): decrease
ALSFRS scores, average score (ALS): −7.1
N-acetylation dependence on NAT2 activity ([6]; metabolic pathway): highly dependent on NAT2 activity
safety and tolerability of the dose [7]: safe and tolerated
potency relative to GYKI-52466 [8]: more potent
adverse events when the dose is gradually increased over time [9]: reduced

CC(=O)Nc1ccc(C2=NN(C(C)=O)C(C)Cc3cc4c(cc32)OCO4)cc1 (stereo not drawn) [NAC talampanel]
measurable levels of NAC talampanel by acetylator status ([6]; human, in vivo): seen primarily in fast acetylator subjects, but not in slow acetylators
